Reference: PubChem BioAssay AID1963842 (Molecular Pharmacology Branch, DTP, NCI, 2024)
Several values for one entry are separate records, joined by “and”; a condition that tells them apart may be missing. Equal values may be shown once.

System: 677734-321-R-J1-PDC complex spheroid viability
Assay: Anticancer human tumor 677734-321-R-J1-PDC patient-derived soft tissue sarcoma cell line growth inhibition [POLQ]
Conditions: for viability, T/C: stronger effect = lower value
Protocol: Multicellular complex tumor spheroid response to Polymerase (POL) inhibitors (novobiocin, ART-558, RP6685) in combination with a variety of drugs and investigational agents in selected tumor cell lines
The POL inhibitors (novobiocin, ART-558, and RP6685) were evaluated both individually and in combination with standard of care and investigational anticancer small molecules within a complex spheroid model of solid tumors. . Complex spheroids include a stromal component modeled by human endothelial cells (HUVEC) and fibroblasts modeled by human mesenchymal stem cells (MSCs). The concentration ranges selected for each drug and investigational agent were based upon clinically achievable concentrations if the clinical Cmax of the agent was known.
Compounds. The drugs and investigational agents: novobiocin (NSC847541), ART-558 (NSC835418), RP-6685 (NSC848927), peposertib (NSC802822), ceralasertib (NSC780249), elimusertib (NSC800525), camonsertib (NSC841442), AZD-1390 (NSC803789), olaparib (NSC753686), talazoparib (NSC767125), rucaparib (NSC756644), sotorasib (NSC818433), MRTX-1133 (NSC836407), SN-38 (NSC673596), topotecan (NSC609699), epotoside (NSC141540), doxorubicin (NSC123127), gemcitabine (NSC613327), 5-fluorouracil (NSC19893), paclitaxel (NSC125973), vemurafenib (NSC761431), MSA-2 (NSC828583), SN-011 (NSC837082), adavosertib (NSC754352), prexasertib (NSC758257), carboplatin (NSC241240) and oxaliplatin (NSC266046), were obtained from the National Cancer Institute (NCI) Developmental Therapeutics Program Chemical Repository (21). The FDA-approved anticancer drug set is available from the Developmental Therapeutics Program at https://dtp.cancer.gov/organization/dscb/obtaining/. […] The stock solutions were prepared in dimethyl sulfoxide (DMSO, Sigma-Aldrich, St. Louis, MO, cat. D2650), except for the platinum compounds which were prepared in saline (Quality Biological, Gaithersburg, MD, cat. 114-055-101), at 800-fold the tested concentration and stored at -70 degrees C prior to their use. All drugs and investigational agents were tested over a range starting from a high concentration at or near the clinical Cmax and decreasing in half-log increments. If the clinical Cmax for an agent had not been determined, the highest concentration tested was 10 microM, except for SN-38, which was tested at a high concentration of 1 microM.
Cell Culture. All cells were maintained in an incubator at 37 degrees C and 5% CO2 with 95% humidity. The PDC lines were cultured according to standard operating procedures established by the NCI PDMR (https://pdmr.cancer.gov). Table 3 of the manuscript, lists the cell lines along with the number of the three cell types plated to form the mct-spheroids and media for tumor cell growth. After thawing, all PDC lines, except 997537-175-T-J1-PDC and 415267-285-R-J2-PDC, were cultured in Matrigel-coated flasks prepared with a working solution of 1X Ham's F-12 nutrient mix, without supplementation (Thermo Fisher Scientific, cat. 11765054), 100 U/mL penicillin-streptomycin (Thermo Fisher Scientific, cat. 15140122), and 2.5% Matrigel (Corning Inc., Corning, NY, cat. 354248) for the first three passages. The two PDC lines 997537-175-T-J1-PDC and 415267-285-R-J2-PDC were cultured on uncoated flasks. The 857933-349-R-J2-PDC line was cultured in 6C/Colon 1B media containing advanced DMEM/F-12 (Thermo Fisher Scientific, cat. 12634028), 10 mM HEPES (Thermo Fisher Scientific, cat. 15630080), 1X GlutaMAX supplement (Thermo Fisher Scientific, cat. 35050061), 0.1 mg/mL primocin (InvivoGen, San Diego, CA, cat. ant-pm-2), 10% defined fetal bovine serum, heat inactivated (HyClone Laboratories Inc., Logan, UT, cat. SH30070.03HI), 50% L-WRN conditioned media (ATCC, cat. CRL-3276), 1.25 mM N-Acetyl-L-cysteine (Sigma-Aldrich, cat. A9165), 10 mM nicotinamide (Sigma-Aldrich, cat. N0636), 1X B-27 supplement (Thermo Fisher Scientific, cat. 17504044), 1X N-2 supplement (Thermo Fisher Scientific, cat. […]
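Note: spheroids exposed to compounds for one week.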
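Throughout, for viability, T/C: 100% = vehicle DMSO treated spheroids.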

COc1cc(C2c3cc4c(cc3C(OC3OC5COC(C)OC5C(O)C3O)C3COC(=O)C23)OCO4)cc(OC)c1O (stereo not drawn)
viability, T/C (compound 0.0316 µM): 104% and 100% and 109%
viability, T/C (compound 0.1 µM): 89.1% and 82.7% and 89.3%
viability, T/C (compound 0.316 µM): 62.1% and 53.5% and 58%
viability, T/C (compound 1 µM): 57.5% and 29.2% and 48.4%
viability, T/C (compound 3.16 µM): 31.5% and 19.5% and 25.9%
viability, T/C (compound 10 µM): 8.04% and 9.9% and 10.2%
IC50 (curve of compound): 0.97 µM and 0.385 µM and 0.706 µM

CCCS(=O)(=O)Nc1ccc(F)c(C(=O)c2c[nH]c3ncc(-c4ccc(Cl)cc4)cc23)c1F + COC1C(OC(N)=O)C(O)C(Oc2ccc3c(O)c(NC(=O)c4ccc(O)c(CC=C(C)C)c4)c(=O)oc3c2C)OC1(C)C
IC50 (curve of first compound, second compound 0.0316 µM): 6.53 µM
IC50 (curve of first compound, second compound 0.1 µM): 6.39 µM
IC50 (curve of first compound, second compound 0.316 µM): 6.59 µM
IC50 (curve of first compound, second compound 1 µM): 6.51 µM
IC50 (curve of first compound, second compound 3.16 µM): 6.73 µM
IC50 (curve of first compound, second compound 10 µM): 6.49 µM
viability, T/C (second compound 0.0316 µM, first compound 0.0316 µM): 103%
viability, T/C (second compound 0.0316 µM, first compound 0.1 µM): 109%
viability, T/C (second compound 0.0316 µM, first compound 0.316 µM): 101%
viability, T/C (second compound 0.0316 µM, first compound 1 µM): 118%
viability, T/C (second compound 0.0316 µM, first compound 3.16 µM): 106%
viability, T/C (second compound 0.0316 µM, first compound 10 µM): 16.7%
viability, T/C (second compound 0.1 µM, first compound 0.0316 µM): 108%
viability, T/C (second compound 0.1 µM, first compound 0.1 µM): 107%
viability, T/C (second compound 0.1 µM, first compound 0.316 µM): 104%
viability, T/C (second compound 0.1 µM, first compound 1 µM): 120%
viability, T/C (second compound 0.1 µM, first compound 3.16 µM): 104%
viability, T/C (second compound 0.1 µM, first compound 10 µM): 15.3%
viability, T/C (second compound 0.316 µM, first compound 0.0316 µM): 105%
viability, T/C (second compound 0.316 µM, first compound 0.1 µM): 110%
viability, T/C (second compound 0.316 µM, first compound 0.316 µM): 109%
viability, T/C (second compound 0.316 µM, first compound 1 µM): 110%
viability, T/C (second compound 0.316 µM, first compound 3.16 µM): 109%
viability, T/C (second compound 0.316 µM, first compound 10 µM): 16.6%
viability, T/C (second compound 1 µM, first compound 0.0316 µM): 103%
viability, T/C (second compound 1 µM, first compound 0.1 µM): 107%
viability, T/C (second compound 1 µM, first compound 0.316 µM): 101%
viability, T/C (second compound 1 µM, first compound 1 µM): 112%
viability, T/C (second compound 1 µM, first compound 3.16 µM): 109%
viability, T/C (second compound 1 µM, first compound 10 µM): 16.5%
viability, T/C (second compound 3.16 µM, first compound 0.0316 µM): 106%
viability, T/C (second compound 3.16 µM, first compound 0.1 µM): 101%
viability, T/C (second compound 3.16 µM, first compound 0.316 µM): 111%
viability, T/C (second compound 3.16 µM, first compound 1 µM): 112%
viability, T/C (second compound 3.16 µM, first compound 3.16 µM): 112%
viability, T/C (second compound 3.16 µM, first compound 10 µM): 19.3%
viability, T/C (second compound 10 µM, first compound 0.0316 µM): 107%
viability, T/C (second compound 10 µM, first compound 0.1 µM): 104%
viability, T/C (second compound 10 µM, first compound 0.316 µM): 109%
viability, T/C (second compound 10 µM, first compound 1 µM): 105%
viability, T/C (second compound 10 µM, first compound 3.16 µM): 105%
viability, T/C (second compound 10 µM, first compound 10 µM): 17.2%

O=C(Nc1ccc(O)c(NS(=O)(=O)c2ccc(F)cc2)c1)c1ccc(-c2ccccc2)cc1
viability, T/C (compound 0.0316 µM): 96.9% and 104% and 110%
viability, T/C (compound 0.1 µM): 100% and 107% and 109%
viability, T/C (compound 0.316 µM): 108% and 112% and 104%
viability, T/C (compound 1 µM): 94.2% and 98.8% and 106%
viability, T/C (compound 3.16 µM): 68.3% and 79.4% and 89.6%
viability, T/C (compound 10 µM): 21.9% and 20.6% and 32.8%
IC50 (curve of compound): 4.96 µM and 5.6 µM and 7.07 µM

COc1cccc(OCCCN)c1-c1cc(Nc2cnc(C#N)cn2)n[nH]1
viability, T/C (compound 0.00316 µM): 96.4% and 60.4% and 103%
viability, T/C (compound 0.01 µM): 35.5% and 11.5% and 11.2%
viability, T/C (compound 0.0316 µM): 13.8% and 5.42% and 7.19%
viability, T/C (compound 0.1 µM): 8.96% and 5.9% and 8.69%
viability, T/C (compound 0.316 µM): 11% and 6.62% and 7.27%
viability, T/C (compound 1 µM): 10.3% and 5.14% and 6.13%
IC50 (curve of compound): 0.00761 µM and 0.00404 µM and 0.00615 µM
